Series [1] in a line: In vitro half life in rat. To be noted: in vivo.
Another series has as its target Prothrombin (Homo sapiens, UniProt P00734). The series can be described thus: In vitro anti-thrombin activity was determined.
Series [2] addresses T1, Antithrombin-III (Homo sapiens, UniProt P01008). The series can be described thus: In vitro antithrombin III (ATIII)-mediated anti-Xa activity was determined.
Series [3] concerns the target T1, Antithrombin-III. Kind of series: (§1) Antithrombin III (ATIII)-mediated anti-Xa activity was determined.
For series [4], the target named is T1, Antithrombin-III. The series is described as §1. This is another data set of the same source.

T1 sequence (P01008 whole entry): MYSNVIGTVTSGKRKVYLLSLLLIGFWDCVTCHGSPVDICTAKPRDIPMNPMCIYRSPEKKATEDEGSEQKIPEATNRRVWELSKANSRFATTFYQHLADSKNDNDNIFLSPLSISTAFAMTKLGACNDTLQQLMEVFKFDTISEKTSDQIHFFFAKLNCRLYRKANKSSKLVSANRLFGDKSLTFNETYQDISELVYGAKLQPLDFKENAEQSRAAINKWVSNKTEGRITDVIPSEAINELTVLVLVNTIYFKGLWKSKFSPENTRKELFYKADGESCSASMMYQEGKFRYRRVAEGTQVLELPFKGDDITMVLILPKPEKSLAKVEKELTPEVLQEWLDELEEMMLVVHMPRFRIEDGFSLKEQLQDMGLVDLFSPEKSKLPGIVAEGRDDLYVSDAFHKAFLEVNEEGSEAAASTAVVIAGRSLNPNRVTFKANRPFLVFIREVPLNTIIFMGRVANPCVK

In series [1], `CO[C@H]1O[C@H](COS(=O)(=O)O)[C@@H](O[C@@H]2O[C@@H](C(=O)O)[C@@H](O[C@H]3O[C@H](COS(=O)(=O)O)[C@@H](O[C@@H]4O[C@H](C(=O)O)[C@@H](O[C@H]5O[C@H](COS(=O)(=O)O)[C@@H](OCCOCCOCCOCCNC(=O)c6ccc(NC(=O)CSC[C@H](NS(=O)(=O)c7ccc8ccccc8c7)C(=O)NC(Cc7ccc(C(=N)N)cc7)C(=O)N7C=CCCC7)cc6)[C@H](OS(=O)(=O)O)[C@H]5OS(=O)(=O)O)[C@H](OC)[C@H]4OS(=O)(=O)O)[C@H](OS(=O)(=O)O)[C@H]3OS(=O)(=O)O)[C@H](OC)[C@H]2OS(=O)(=O)O)[C@H](OS(=O)(=O)O)[C@H]1OS(=O)(=O)O` (stereo not given in full) showed a half-life of 1.5 h. In addition, the 50% inhibitory concentration (IC50) against Prothrombin came out at 350 nM. Further, the Activity on Antithrombin-III [2] was found to be 885 U mg-1.
As to `CO[C@@H]1OC(COS(=O)(=O)O)[C@H](O[C@@H]2OC(C(=O)O)[C@H](O[C@@H]3OC(COS(=O)(=O)O)[C@H](O[C@@H]4OC(C(=O)O)[C@H](O[C@@H]5OC(COS(=O)(=O)O)[C@@H](O)[C@@H](OS(=O)(=O)O)C5OS(=O)(=O)O)[C@@H](OC)C4OS(=O)(=O)O)[C@@H](OS(=O)(=O)O)C3OS(=O)(=O)O)[C@@H](OC)C2OS(=O)(=O)O)[C@@H](OS(=O)(=O)O)C1OS(=O)(=O)O` (stereo not given in full), on Antithrombin-III [3], the Activity was found to be 1160 U mg-1.
As for `N=C(N)c1ccc(C[C@@H](NC(=O)CNS(=O)(=O)c2ccc3ccccc3c2)C(=O)N2CCCCC2)cc1`, on Antithrombin-III [4], the IC50 is 570 nM.

The record behind these values is ChEMBL document CHEMBL1131796, “Design and synthesis of a novel synthetic NAPAP-penta-saccharide conjugate displaying a dual antithrombotic action” (Bioorg Med Chem Lett, 1999).
